These results are taken from paper PMC2248166, “Quantitative peptide binding motifs for 19 human and mouse MHC class I molecules derived using positional scanning combinatorial peptide libraries” (Immunome Research, 2008).

pIC50: −log10 of the molar value. Where a SMILES comes first, the peptide text is derived from it.

The assay concerns the target HLA B*1503 (Homo sapiens, UniProt P01889, A329T/A93T/A95T/C349S/D201E/D98Y/E187L/E204Q/K202T/N87E/Q94N/R155S/R180L/S121R/S35A/V306I/V36M/Y140S/Y91S). Put plainly: biochemical. It is filed as binding.

The pIC50 is −log10 of the IC50, conventionally taken in molar units. High values mean a small IC50, low ones a large IC50. In turn, `CC[C@H](C)[C@H](N)C(=O)N[C@@H](CCC(N)=O)C(=O)N[C@@H](Cc1c[nH]cn1)C(=O)N[C@@H](CC(N)=O)C(=O)N[C@@H](Cc1ccccc1)C(=O)N[C@H](C(=O)N[C@@H](CCC(N)=O)C(=O)N[C@H](C(=O)N[C@@H](C)C(=O)O)[C@@H](C)CC)[C@@H](C)O` [3102.1181] (H-IQHNFTQIA-OH) had a negative logarithm of the IC50 (pIC50) of 9.60.
Under `CSCC[C@H](NC(=O)[C@H](C)NC(=O)[C@H](CCCCN)NC(=O)[C@@H](N)Cc1ccccc1)C(=O)N[C@@H](Cc1c[nH]c2ccccc12)C(=O)N[C@@H](CCCCN)C(=O)N[C@@H](Cc1ccc(O)cc1)C(=O)N1CCC[C@H]1C(=O)N[C@@H](Cc1ccccc1)C(=O)O` [3102.1182] (H-FKAMWKYPF-OH) stands 9.96.
Under `CSCC[C@H](NC(=O)[C@@H](N)CCSC)C(=O)N[C@H](C(=O)N[C@@H](CO)C(=O)N[C@H](C(=O)N[C@@H](CCC(=O)O)C(=O)N[C@@H](CC(N)=O)C(=O)N[C@@H](CC(N)=O)C(=O)N[C@@H](CC(C)C)C(=O)O)[C@@H](C)O)C(C)C` [3102.1183] (H-MMVSTENNL-OH) stands 7.96.
Take `CSCC[C@H](NC(=O)[C@H](CO)NC(=O)[C@H](Cc1ccccc1)NC(=O)[C@H](CC(N)=O)NC(=O)[C@@H](NC(=O)[C@H](CCSC)NC(=O)[C@@H](N)Cc1ccccc1)[C@@H](C)O)C(=O)N[C@H](C(=O)N[C@@H](Cc1ccc(O)cc1)C(=O)O)C(C)C` [3102.1186] (H-FMTNFSMVY-OH): the pIC50 was 8.64.
Consider `CC[C@H](C)[C@H](NC(=O)[C@H](Cc1c[nH]cn1)NC(=O)[C@@H](NC(=O)[C@H](Cc1ccc(O)cc1)NC(=O)[C@H](CCC(N)=O)NC(=O)[C@@H](N)CC(C)C)C(C)C)C(=O)N[C@@H](CC(N)=O)C(=O)N[C@@H](CCC(=O)O)C(=O)N[C@@H](CC(C)C)C(=O)O` [3102.1187] (H-LQYVHINEL-OH), for which the negative logarithm of the IC50 (pIC50) was 8.43.
Compound `CSCC[C@H](NC(=O)[C@@H](N)CCCCN)C(=O)N[C@H](C(=O)N[C@@H](CCCNC(=N)N)C(=O)N[C@H](C(=O)N[C@@H](Cc1ccccc1)C(=O)N[C@@H](CC(N)=O)C(=O)N[C@@H](CCCCN)C(=O)N[C@@H](Cc1ccccc1)C(=O)O)C(C)C)[C@@H](C)O` [3102.1188] (H-KMTRVFNKF-OH) had a pIC50 of 9.37.
The same measure for `CC(C)C[C@H](NC(=O)[C@H](CC(C)C)NC(=O)[C@@H](NC(=O)[C@H](CO)NC(=O)[C@H](CO)NC(=O)[C@H](CCCCN)NC(=O)[C@@H](N)CCCCN)[C@@H](C)O)C(=O)N[C@H](C(=O)N[C@@H](Cc1ccccc1)C(=O)O)[C@@H](C)O` [3102.1189] (H-KKSSTLLTF-OH): 9.44; for `CC(C)[C@H](NC(=O)[C@@H](NC(=O)[C@H](CC(=O)O)NC(=O)[C@H](CO)NC(=O)[C@H](CCC(N)=O)NC(=O)[C@H](CO)NC(=O)[C@H](CCCCN)NC(=O)[C@H](C)N)[C@@H](C)O)C(=O)N[C@@H](Cc1ccccc1)C(=O)O` [3102.1191] (H-AKSQSDTVF-OH): 9.80; for `CC[C@H](C)[C@H](NC(=O)[C@H](Cc1ccc(O)cc1)NC(=O)[C@H](CO)NC(=O)[C@@H]1CCCN1C(=O)[C@H](Cc1ccc(O)cc1)NC(=O)[C@H](CCSC)NC(=O)[C@@H](N)CO)C(=O)N[C@@H](CCC(=O)O)C(=O)N[C@@H](Cc1ccccc1)C(=O)O` [3102.1196] (H-SMYPSYIEF-OH): 9.96.
The same measure for `CC[C@H](C)[C@H](N)C(=O)N[C@@H](CCCCN)C(=O)N[C@@H](Cc1ccccc1)C(=O)N[C@@H](C)C(=O)N[C@@H](C)C(=O)NCC(=O)N[C@H](C(=O)N[C@H](C(=O)N[C@H](C(=O)O)[C@@H](C)CC)[C@@H](C)CC)[C@@H](C)CC` [3102.1198] (H-IKFAAGIII-OH): 7.80; for `CC[C@H](C)[C@H](NC(=O)[C@@H](NC(=O)[C@H](Cc1ccccc1)NC(=O)[C@H](CCSC)NC(=O)[C@@H](NC(=O)[C@H](CCCCN)NC(=O)[C@@H](N)[C@@H](C)O)C(C)C)C(C)C)C(=O)N[C@@H](CCCNC(=N)N)C(=O)N[C@@H](Cc1ccccc1)C(=O)O` [3102.1199] (H-TKVMFVIRF-OH): 7.51.
The same measure for `CC[C@H](C)[C@H](NC(=O)[C@H](CCCCN)NC(=O)[C@@H](N)CCSC)C(=O)N[C@H](C(=O)N[C@@H](CCCNC(=N)N)C(=O)N1CCC[C@H]1C(=O)N[C@@H](CCCNC(=N)N)C(=O)N[C@@H](Cc1c[nH]cn1)C(=O)N[C@@H](Cc1ccccc1)C(=O)O)[C@@H](C)O` [3102.1200] (H-MKITRPRHF-OH): 9.00; for `CC[C@H](C)[C@H](N)C(=O)N[C@@H](CCC(=O)O)C(=O)N[C@H](C(=O)N[C@@H](CO)C(=O)N[C@@H](CO)C(=O)N[C@@H](CC(=O)O)C(=O)N[C@H](C(=O)N[C@@H](CO)C(=O)N[C@@H](Cc1ccccc1)C(=O)O)[C@@H](C)CC)C(C)C` [3102.1201] (H-IEVSSDISF-OH): 8.01.
On to `CC[C@H](C)[C@H](NC(=O)[C@H](Cc1c[nH]cn1)NC(=O)[C@H](CC(N)=O)NC(=O)[C@H](CCCCN)NC(=O)[C@@H](N)CCCNC(=N)N)C(=O)N[C@@H](Cc1ccc(O)cc1)C(=O)N[C@@H](CC(N)=O)C(=O)N[C@@H](CO)C(=O)N[C@@H](Cc1ccccc1)C(=O)O` [3102.1203] (H-RKNHIYNSF-OH), for which the pIC50 is 9.89.
On to `CC(C)C[C@H](NC(=O)[C@@H](N)Cc1ccccc1)C(=O)N[C@@H](CO)C(=O)N[C@@H](CC(N)=O)C(=O)N[C@@H](CS)C(=O)N[C@@H](CCC(=O)O)C(=O)N[C@@H](CCCCN)C(=O)N[C@@H](CCC(N)=O)C(=O)N[C@@H](Cc1ccccc1)C(=O)O` [3102.1206] (H-FLSNCEKQF-OH), for which the pIC50 is 7.68.
Under `CC[C@H](C)[C@H](NC(=O)[C@H](CO)NC(=O)[C@@H](NC(=O)[C@H](Cc1ccccc1)NC(=O)CNC(=O)[C@@H](NC(=O)[C@@H](NC(=O)[C@H](CCCCN)NC(=O)[C@@H](N)CCCCN)C(C)C)[C@@H](C)CC)C(C)C)C(=O)O` [3102.1208] (H-KKVIGFVSI-OH) stands 8.12.
The compound `CC[C@H](C)[C@H](N)C(=O)N[C@@H](CCC(N)=O)C(=O)N[C@@H](CCCNC(=N)N)C(=O)N[C@H](C(=O)N[C@@H](Cc1ccc(O)cc1)C(=O)N[C@@H](CO)C(=O)N[C@@H](CO)C(=O)N[C@@H](CO)C(=O)N[C@H](C(=O)O)[C@@H](C)CC)[C@@H](C)O` [3102.1209] (H-IQRTYSSSI-OH) showed a pIC50 of 9.08.
On to `CSCC[C@H](NC(=O)[C@H](CCSC)NC(=O)[C@H](CCC(=O)O)NC(=O)[C@H](C)N)C(=O)N[C@@H](C)C(=O)N1CCC[C@H]1C(=O)N[C@@H](CO)C(=O)N[C@@H](CCSC)C(=O)N[C@@H](Cc1ccccc1)C(=O)O` [3102.1211] (H-AEMMAPSMF-OH), for which the negative logarithm of the IC50 (pIC50) was 7.77.
The same measure for `CC(C)C[C@H](N)C(=O)N[C@@H](CCC(=O)O)C(=O)N[C@@H](Cc1ccccc1)C(=O)N[C@@H](CC(N)=O)C(=O)N[C@H](C(=O)N1CCC[C@H]1C(=O)N[C@@H](Cc1ccccc1)C(=O)N[C@H](C(=O)N[C@@H](Cc1ccccc1)C(=O)O)C(C)C)[C@@H](C)O` [3102.1212] (H-LEFNTPFVF-OH): 8.00; for `CSCC[C@H](NC(=O)[C@@H](NC(=O)[C@H](CO)NC(=O)[C@@H](NC(=O)[C@H](Cc1ccc(O)cc1)NC(=O)[C@@H](NC(=O)[C@H](Cc1ccccc1)NC(=O)[C@H](CCCCN)NC(=O)[C@@H](N)CO)C(C)C)C(C)C)C(C)C)C(=O)O` [3102.1213] (H-SKFVYVSVM-OH): 8.80.
`CC[C@H](C)[C@H](N)C(=O)N[C@@H](CC(C)C)C(=O)N[C@@H](C)C(=O)N1CCC[C@H]1C(=O)N[C@@H](CC(N)=O)C(=O)N1CCC[C@H]1C(=O)N[C@@H](CC(N)=O)C(=O)N[C@@H](CCCNC(=N)N)C(=O)N[C@@H](Cc1ccccc1)C(=O)O` [3102.1221] (H-ILAPNPNRF-OH) gave a negative logarithm of the IC50 (pIC50) of 7.59.
The same measure for `CC[C@H](C)[C@H](NC(=O)[C@H](CO)NC(=O)[C@H](C)NC(=O)[C@H](Cc1ccccc1)NC(=O)[C@H](CO)NC(=O)CNC(=O)[C@H](CO)NC(=O)[C@@H](N)Cc1ccccc1)C(=O)N[C@@H](Cc1ccccc1)C(=O)O` [3102.1222] (H-FSGSFASIF-OH): 9.49; for `CSCC[C@H](NC(=O)[C@@H](N)CS)C(=O)N[C@@H](CO)C(=O)N[C@@H](CC(N)=O)C(=O)N[C@@H](CO)C(=O)N[C@@H](CCCNC(=N)N)C(=O)N[C@@H](CC(C)C)C(=O)N[C@@H](CO)C(=O)N[C@@H](Cc1ccccc1)C(=O)O` [3102.1225] (H-CMSNSRLSF-OH): 9.00; for `CC[C@H](C)[C@H](N)C(=O)N[C@@H](CO)C(=O)N[C@H](C(=O)N[C@@H](Cc1ccc(O)cc1)C(=O)N1CCC[C@H]1C(=O)NCC(=O)N[C@@H](CC(N)=O)C(=O)N[C@H](C(=O)N[C@@H](Cc1ccccc1)C(=O)O)[C@@H](C)O)[C@@H](C)O` [3102.1229] (H-ISTYPGNTF-OH): 9.32.
For `CC(C)C[C@H](NC(=O)[C@H](CO)NC(=O)[C@H](CC(C)C)NC(=O)CNC(=O)[C@H](CS)NC(=O)[C@H](CO)NC(=O)[C@H](Cc1ccccc1)NC(=O)[C@H](CCCCN)NC(=O)[C@@H](N)Cc1ccc(O)cc1)C(=O)O` [3102.1230] (H-YKFSCGLSL-OH), the negative-log IC50 (pIC50) was 9.89.
As to `CC(C)C[C@H](NC(=O)[C@H](Cc1ccc(O)cc1)NC(=O)[C@H](CCC(N)=O)NC(=O)[C@H](Cc1ccccc1)NC(=O)[C@H](CCC(N)=O)NC(=O)[C@@H]1CCCN1C(=O)[C@H](CCC(N)=O)NC(=O)[C@H](CCC(N)=O)NC(=O)[C@@H](N)Cc1ccccc1)C(=O)O` [3102.1233] (H-FQQPQFQYL-OH), the pIC50 is 7.64.
For `CC[C@H](C)[C@H](NC(=O)[C@@H](NC(=O)[C@H](CC(C)C)NC(=O)[C@H](CCSC)NC(=O)[C@H](CCCCN)NC(=O)[C@@H](N)CC(N)=O)[C@@H](C)O)C(=O)N[C@H](C(=O)N[C@@H](CO)C(=O)N[C@@H](Cc1ccccc1)C(=O)O)[C@@H](C)O` [3102.1234] (H-NKMLTITSF-OH), the pIC50 is 8.85.
The same measure for `C[C@H](NC(=O)[C@@H](N)CCCNC(=N)N)C(=O)N[C@@H](CO)C(=O)N[C@@H](CO)C(=O)NCC(=O)N[C@@H](CC(=O)O)C(=O)N[C@@H](CO)C(=O)N[C@@H](CO)C(=O)N[C@@H](Cc1ccccc1)C(=O)O` [3102.1236] (H-RASSGDSSF-OH): 7.68.
